Assay results taken from PubChem BioAssay AID1982 (Sanford-Burnham Center for Chemical Genomics, 2009).
The source made the active and inactive calls. The rule behind the calls is not given here.

Columns and labels:
Assay in all cases: kinase panel binding selectivity, selectivity assay, biochemical, KINOMEscan (AID 1982)
ACVR1B = settings: KINOMEscan 353-kinase binding panel, qPCR, at 10 µM, hits give low values
AMPK-alpha2 = settings: KINOMEscan 353-kinase binding panel, qPCR, at 10 µM, hits give low values
BMX = settings: KINOMEscan 353-kinase binding panel, qPCR, at 10 µM, hits give low values
CSNK1A1L = settings: KINOMEscan 353-kinase binding panel, qPCR, at 10 µM, hits give low values
CSNK1E = settings: KINOMEscan 353-kinase binding panel, qPCR, at 10 µM, hits give low values
[1] = target: Calcium/calmodulin-dependent protein kinase type 1D (Homo sapiens) (UniProt Q8IU85); settings: KINOMEscan 353-kinase binding panel, qPCR; CAMK1D; at 10 µM; hits give low values
Calcium/calmodulin-dependent protein kinase type 1D (Homo sapiens), sequence (Q8IU85 whole entry, looked up, canonical isoform): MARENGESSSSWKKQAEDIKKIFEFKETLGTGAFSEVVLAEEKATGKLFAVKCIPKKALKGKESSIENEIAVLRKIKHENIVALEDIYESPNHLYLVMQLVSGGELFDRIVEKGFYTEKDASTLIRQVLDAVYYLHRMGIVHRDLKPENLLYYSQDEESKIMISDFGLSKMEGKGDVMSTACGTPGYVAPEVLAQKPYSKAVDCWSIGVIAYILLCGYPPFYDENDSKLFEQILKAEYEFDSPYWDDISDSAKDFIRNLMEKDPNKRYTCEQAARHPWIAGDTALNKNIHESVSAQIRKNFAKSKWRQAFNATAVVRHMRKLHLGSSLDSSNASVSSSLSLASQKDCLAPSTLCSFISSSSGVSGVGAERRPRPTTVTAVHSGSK

[2] = target: Casein kinase I isoform delta (Homo sapiens) (UniProt P48730); settings: KINOMEscan 353-kinase binding panel, qPCR; CSNK1D; at 10 µM; hits give low values
[3] = target: Casein kinase I isoform gamma-2 (Homo sapiens) (UniProt P78368); settings: KINOMEscan 353-kinase binding panel, qPCR; CSNK1G2; at 10 µM; hits give low values
[4] = target: Casein kinase I isoform gamma-3 (Homo sapiens) (UniProt Q9Y6M4); settings: KINOMEscan 353-kinase binding panel, qPCR; CSNK1G3; at 10 µM; hits give low values
Casein kinase I isoform gamma-3 (Homo sapiens), sequence (Q9Y6M4 whole entry, looked up, canonical isoform): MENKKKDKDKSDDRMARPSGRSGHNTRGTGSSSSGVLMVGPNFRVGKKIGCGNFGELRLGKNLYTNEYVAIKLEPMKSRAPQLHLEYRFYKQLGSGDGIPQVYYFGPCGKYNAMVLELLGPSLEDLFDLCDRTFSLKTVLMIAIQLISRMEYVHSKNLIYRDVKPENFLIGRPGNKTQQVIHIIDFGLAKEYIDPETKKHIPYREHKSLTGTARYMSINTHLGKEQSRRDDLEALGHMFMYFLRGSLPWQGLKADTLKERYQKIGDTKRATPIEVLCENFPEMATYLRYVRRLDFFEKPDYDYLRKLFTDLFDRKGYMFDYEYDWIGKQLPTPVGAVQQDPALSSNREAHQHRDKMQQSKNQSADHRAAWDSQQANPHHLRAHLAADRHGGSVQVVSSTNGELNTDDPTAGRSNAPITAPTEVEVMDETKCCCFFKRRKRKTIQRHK

EPHA8 = settings: KINOMEscan 353-kinase binding panel, qPCR, at 10 µM, hits give low values
ERK8 = settings: KINOMEscan 353-kinase binding panel, qPCR, at 10 µM, hits give low values
[5] = target: Glycogen synthase kinase-3 beta (Homo sapiens) (UniProt P49841); settings: KINOMEscan 353-kinase binding panel, qPCR; GSK3B; at 10 µM; hits give low values
[6] = target: Inhibitor of nuclear factor kappa-B kinase subunit epsilon (Homo sapiens) (UniProt Q14164); settings: KINOMEscan 353-kinase binding panel, qPCR; IKK-epsilon; at 10 µM; hits give low values
[7] = target: Insulin receptor (Homo sapiens) (UniProt P06213); settings: KINOMEscan 353-kinase binding panel, qPCR; INSR; at 10 µM; hits give low values
LATS2 = settings: KINOMEscan 353-kinase binding panel, qPCR, at 10 µM, hits give low values
[8] = target: MAP kinase-activated protein kinase 2 (Homo sapiens) (UniProt P49137); settings: KINOMEscan 353-kinase binding panel, qPCR; MAPKAPK2; at 10 µM; hits give low values
MAP kinase-activated protein kinase 2 (Homo sapiens), sequence (P49137 whole entry, looked up): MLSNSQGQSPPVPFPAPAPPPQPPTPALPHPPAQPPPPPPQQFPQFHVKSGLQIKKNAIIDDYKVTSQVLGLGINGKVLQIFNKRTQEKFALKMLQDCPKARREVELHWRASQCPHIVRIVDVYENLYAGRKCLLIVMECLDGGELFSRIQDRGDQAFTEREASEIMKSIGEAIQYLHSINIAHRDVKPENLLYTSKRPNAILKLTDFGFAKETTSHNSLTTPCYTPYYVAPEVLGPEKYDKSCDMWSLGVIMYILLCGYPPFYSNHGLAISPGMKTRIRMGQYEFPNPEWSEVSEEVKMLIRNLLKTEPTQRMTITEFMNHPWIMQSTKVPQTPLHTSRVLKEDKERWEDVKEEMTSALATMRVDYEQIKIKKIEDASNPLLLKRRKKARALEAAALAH

MEK2 = settings: KINOMEscan 353-kinase binding panel, qPCR, at 10 µM, hits give low values
MEK6 = settings: KINOMEscan 353-kinase binding panel, qPCR, at 10 µM, hits give low values
MLK3 = settings: KINOMEscan 353-kinase binding panel, qPCR, at 10 µM, hits give low values
MUSK = settings: KINOMEscan 353-kinase binding panel, qPCR, at 10 µM, hits give low values
[9] = target: Mitogen-activated protein kinase 3 (Homo sapiens) (UniProt P27361); settings: KINOMEscan 353-kinase binding panel, qPCR; ERK1; at 10 µM; hits give low values
[10] = target: Non-receptor tyrosine-protein kinase TYK2 (Homo sapiens) (UniProt P29597); settings: KINOMEscan 353-kinase binding panel, qPCR, at 10 µM, hits give low values
Non-receptor tyrosine-protein kinase TYK2 (Homo sapiens), sequence (P29597 whole entry, looked up): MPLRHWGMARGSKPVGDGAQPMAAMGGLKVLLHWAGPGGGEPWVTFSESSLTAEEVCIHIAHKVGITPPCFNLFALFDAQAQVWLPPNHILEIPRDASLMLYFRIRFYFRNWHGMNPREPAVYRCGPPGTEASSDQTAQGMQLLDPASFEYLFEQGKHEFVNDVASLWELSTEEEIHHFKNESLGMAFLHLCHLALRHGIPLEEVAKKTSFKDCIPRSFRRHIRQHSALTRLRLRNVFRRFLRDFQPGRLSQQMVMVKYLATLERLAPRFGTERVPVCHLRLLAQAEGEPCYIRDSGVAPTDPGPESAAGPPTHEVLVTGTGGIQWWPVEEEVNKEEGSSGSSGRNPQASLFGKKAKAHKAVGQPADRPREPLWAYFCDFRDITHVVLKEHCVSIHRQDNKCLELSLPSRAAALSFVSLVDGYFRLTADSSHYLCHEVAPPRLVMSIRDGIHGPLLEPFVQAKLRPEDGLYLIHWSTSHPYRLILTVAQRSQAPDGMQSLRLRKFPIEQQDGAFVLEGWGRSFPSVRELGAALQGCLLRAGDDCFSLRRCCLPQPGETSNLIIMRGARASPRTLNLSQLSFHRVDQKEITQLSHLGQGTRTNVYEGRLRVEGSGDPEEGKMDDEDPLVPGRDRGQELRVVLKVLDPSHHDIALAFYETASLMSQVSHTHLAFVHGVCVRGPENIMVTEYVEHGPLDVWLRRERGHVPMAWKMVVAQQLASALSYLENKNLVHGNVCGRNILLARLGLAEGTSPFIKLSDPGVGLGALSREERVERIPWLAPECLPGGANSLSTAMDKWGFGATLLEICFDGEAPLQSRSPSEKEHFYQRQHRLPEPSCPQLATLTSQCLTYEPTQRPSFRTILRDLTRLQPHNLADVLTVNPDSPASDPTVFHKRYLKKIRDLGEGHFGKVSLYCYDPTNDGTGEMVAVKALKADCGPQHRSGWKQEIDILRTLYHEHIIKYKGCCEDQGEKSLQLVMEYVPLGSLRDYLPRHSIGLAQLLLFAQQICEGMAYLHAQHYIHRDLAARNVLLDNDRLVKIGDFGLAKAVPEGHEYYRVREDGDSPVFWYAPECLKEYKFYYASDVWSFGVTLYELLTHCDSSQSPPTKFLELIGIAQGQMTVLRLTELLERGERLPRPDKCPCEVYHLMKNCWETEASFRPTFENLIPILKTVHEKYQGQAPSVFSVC

PAK2 = settings: KINOMEscan 353-kinase binding panel, qPCR, at 10 µM, hits give low values
PFTK1 = settings: KINOMEscan 353-kinase binding panel, qPCR, at 10 µM, hits give low values
PRKCE = settings: KINOMEscan 353-kinase binding panel, qPCR, at 10 µM, hits give low values
PRKCH = settings: KINOMEscan 353-kinase binding panel, qPCR, at 10 µM, hits give low values
RIOK1 = settings: KINOMEscan 353-kinase binding panel, qPCR, at 10 µM, hits give low values
[11] = target: Receptor-type tyrosine-protein kinase FLT3 (Homo sapiens) (UniProt P36888); settings: KINOMEscan 353-kinase binding panel, qPCR, at 10 µM, hits give low values
Receptor-type tyrosine-protein kinase FLT3 (Homo sapiens), sequence (P36888 whole entry, looked up): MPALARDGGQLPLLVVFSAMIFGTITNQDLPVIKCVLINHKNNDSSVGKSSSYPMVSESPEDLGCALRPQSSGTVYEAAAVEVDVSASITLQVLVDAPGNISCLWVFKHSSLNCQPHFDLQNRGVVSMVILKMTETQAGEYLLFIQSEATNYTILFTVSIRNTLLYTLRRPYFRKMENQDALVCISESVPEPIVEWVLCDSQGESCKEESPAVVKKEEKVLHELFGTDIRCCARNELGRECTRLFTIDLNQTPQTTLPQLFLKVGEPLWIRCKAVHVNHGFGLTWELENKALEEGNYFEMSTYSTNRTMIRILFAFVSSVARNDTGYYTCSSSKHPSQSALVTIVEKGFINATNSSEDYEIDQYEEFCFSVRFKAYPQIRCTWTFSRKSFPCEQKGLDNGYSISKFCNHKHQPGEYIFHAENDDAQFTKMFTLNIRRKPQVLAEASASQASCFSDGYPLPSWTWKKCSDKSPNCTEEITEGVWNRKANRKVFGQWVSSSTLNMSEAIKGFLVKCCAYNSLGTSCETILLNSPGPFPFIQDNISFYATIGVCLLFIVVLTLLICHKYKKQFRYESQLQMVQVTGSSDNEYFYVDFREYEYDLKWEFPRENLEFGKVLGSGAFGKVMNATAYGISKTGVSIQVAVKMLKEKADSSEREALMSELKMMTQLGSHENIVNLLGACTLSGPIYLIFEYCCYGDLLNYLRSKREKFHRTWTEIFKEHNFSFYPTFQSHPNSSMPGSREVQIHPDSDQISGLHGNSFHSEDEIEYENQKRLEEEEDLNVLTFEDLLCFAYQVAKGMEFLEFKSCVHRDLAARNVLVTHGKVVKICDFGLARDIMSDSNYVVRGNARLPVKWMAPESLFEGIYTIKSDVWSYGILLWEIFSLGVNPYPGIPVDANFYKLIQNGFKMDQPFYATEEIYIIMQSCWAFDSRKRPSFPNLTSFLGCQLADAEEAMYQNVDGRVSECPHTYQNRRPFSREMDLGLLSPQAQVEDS

TIE2 = settings: KINOMEscan 353-kinase binding panel, qPCR, at 10 µM, hits give low values
TXK = settings: KINOMEscan 353-kinase binding panel, qPCR, at 10 µM, hits give low values
[12] = target: Tyrosine-protein kinase Fes/Fps (Homo sapiens) (UniProt P07332); settings: KINOMEscan 353-kinase binding panel, qPCR, at 10 µM, hits give low values
Tyrosine-protein kinase Fes/Fps (Homo sapiens), sequence (P07332 whole entry, looked up): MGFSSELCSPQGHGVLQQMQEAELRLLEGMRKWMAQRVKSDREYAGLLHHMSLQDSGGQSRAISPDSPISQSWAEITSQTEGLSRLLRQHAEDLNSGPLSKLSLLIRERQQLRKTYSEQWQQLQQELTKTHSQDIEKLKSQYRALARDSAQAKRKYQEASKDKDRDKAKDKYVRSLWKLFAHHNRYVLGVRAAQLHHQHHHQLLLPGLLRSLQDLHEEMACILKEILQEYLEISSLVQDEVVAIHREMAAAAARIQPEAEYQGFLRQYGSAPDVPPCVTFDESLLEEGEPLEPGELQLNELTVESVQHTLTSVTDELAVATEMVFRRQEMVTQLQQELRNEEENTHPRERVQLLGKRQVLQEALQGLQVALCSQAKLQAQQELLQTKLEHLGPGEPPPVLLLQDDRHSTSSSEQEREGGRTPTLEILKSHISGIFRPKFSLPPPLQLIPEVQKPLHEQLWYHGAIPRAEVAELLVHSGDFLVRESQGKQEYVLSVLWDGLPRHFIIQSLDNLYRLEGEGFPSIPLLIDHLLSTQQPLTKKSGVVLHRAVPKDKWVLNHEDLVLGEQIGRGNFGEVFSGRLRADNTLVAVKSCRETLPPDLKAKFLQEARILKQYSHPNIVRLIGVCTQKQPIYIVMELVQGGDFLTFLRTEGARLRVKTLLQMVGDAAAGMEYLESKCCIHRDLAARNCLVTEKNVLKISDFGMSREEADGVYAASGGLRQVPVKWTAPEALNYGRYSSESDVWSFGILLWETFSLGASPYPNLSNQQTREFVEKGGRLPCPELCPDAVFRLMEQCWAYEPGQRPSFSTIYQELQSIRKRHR

[13] = target: Tyrosine-protein kinase HCK (Homo sapiens) (UniProt P08631); settings: KINOMEscan 353-kinase binding panel, qPCR, at 10 µM, hits give low values
Tyrosine-protein kinase HCK (Homo sapiens), sequence (P08631 whole entry, looked up): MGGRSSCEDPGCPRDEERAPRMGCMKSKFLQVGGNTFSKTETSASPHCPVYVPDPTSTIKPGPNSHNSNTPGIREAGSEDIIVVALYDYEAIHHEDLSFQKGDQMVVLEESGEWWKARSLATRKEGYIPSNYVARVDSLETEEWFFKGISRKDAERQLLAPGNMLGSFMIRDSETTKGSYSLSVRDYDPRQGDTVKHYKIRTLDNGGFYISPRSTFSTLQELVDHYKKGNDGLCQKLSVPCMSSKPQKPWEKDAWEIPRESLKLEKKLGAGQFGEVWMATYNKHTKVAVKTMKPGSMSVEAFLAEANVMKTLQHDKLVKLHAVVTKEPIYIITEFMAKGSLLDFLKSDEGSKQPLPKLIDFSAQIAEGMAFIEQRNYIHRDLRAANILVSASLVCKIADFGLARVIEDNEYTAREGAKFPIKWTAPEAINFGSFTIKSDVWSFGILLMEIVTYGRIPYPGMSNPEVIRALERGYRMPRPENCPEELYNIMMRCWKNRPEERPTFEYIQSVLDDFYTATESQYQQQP

[14] = target: Tyrosine-protein kinase receptor UFO (Homo sapiens) (UniProt P30530); settings: KINOMEscan 353-kinase binding panel, qPCR; AXL; at 10 µM; hits give low values
[15] = target: Vascular endothelial growth factor receptor 3 (Homo sapiens) (UniProt P35916); settings: KINOMEscan 353-kinase binding panel, qPCR; FLT4; at 10 µM; hits give low values
YANK2 = settings: KINOMEscan 353-kinase binding panel, qPCR, at 10 µM, hits give low values

Measured: percent of control binding

Cc1cc2nc(NCCCO)n(CC(=O)c3cc(C(C)(C)C)c(O)c(C(C)(C)C)c3)c2cc1C
inactive: ACVR1B 84% | AMPK-alpha2 100% | BMX 84% | CSNK1A1L 99% | CSNK1E 96% | [1] 100% | [2] 99% | [3] 100% | [4] 100% | EPHA8 88% | ERK8 100% | [5] 100% | [6] 86% | [7] 94% | LATS2 89% | [8] 81% | MEK2 87% | MEK6 97% | MLK3 99% | MUSK 100% | [9] 94% | [10]; TYK2 Kin.Dom.1 84% | [10]; TYK2 Kin.Dom.2 98% | PAK2 84% | PFTK1 88% | PRKCE 64% | PRKCH 100% | RIOK1 100% | [11] 100% | [11]; FLT3(D835H) 100% | [11]; FLT3(D835Y) 99% | [11]; FLT3(ITD) 100% | [11]; FLT3(K663Q) 100% | [11]; FLT3(N841I) 94% | TIE2 100% | TXK 99% | [12] 99% | [13] 93% | [14] 84% | [15] 100% | YANK2 100%
